Laboratory results as given in PubChem BioAssay AID330 (DTP/NCI, 2004).
Where “and” joins values, the source holds several entries; their conditions need not be identical. Identical values can stand only once. Toxic doses and inconclusive results are not listed. Peptide text beside a SMILES is read from it. * marks the point of attachment. Boc = CC(C)(C)OC(=O)*; NHNH2 = NN*

Test system: P388 leukemia ip, CD2F1 mice, survival T/C
Test: NCI In Vivo Anticancer Drug Screen. Data for tumor model P388 Leukemia (intraperitoneal) in CD2F1 (CDF1) mice
Conditions: endpoint: median survival time, higher = longer survival
How it was run: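 Mice carrying the transplanted tumor received test compound or vehicle. Survival was recorded in each group, and the value is the treated-group measurement divided by that of the vehicle-treated control group.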

[1] = dose: 100.0 mg/kg/injection, schedule: Q04DX003 (ip), vehicle: Klucel (hydroxypropylcellulose) (HPC)
[2] = dose: 200.0 mg/kg/injection, schedule: Q04DX003 (ip), vehicle: Klucel (hydroxypropylcellulose) (HPC)
[3] = dose: 100.0 mg/kg/injection, schedule: Q01DX001 (ip), vehicle: saline with Tween-80
[4] = dose: 200.0 mg/kg/injection, schedule: Q01DX001 (ip), vehicle: saline with Tween-80
[5] = dose: 60.0 mg/kg/injection, schedule: Q01DX005 (ip), vehicle: saline with Tween-80
[6] = dose: 120.0 mg/kg/injection, schedule: Q01DX005 (ip), vehicle: saline with Tween-80
[7] = dose: 100.0 mg/kg/injection, schedule: Q04DX003 (ip), vehicle: saline with Tween-80
[8] = dose: 400.0 mg/kg/injection, schedule: Q04DX003 (ip), vehicle: saline with Tween-80
[9] = dose: 50.0 mg/kg/injection, schedule: Q01DX005 (ip), vehicle: saline with Tween-80
[10] = dose: 100.0 mg/kg/injection, schedule: Q01DX005 (ip), vehicle: saline with Tween-80
[11] = dose: 200.0 mg/kg/injection, schedule: Q01DX005 (ip), vehicle: saline with Tween-80
[12] = dose: 50.0 mg/kg/injection, schedule: Q01DX005 (ip), vehicle: Klucel (hydroxypropylcellulose) (HPC)
[13] = dose: 100.0 mg/kg/injection, schedule: Q01DX005 (ip), vehicle: Klucel (hydroxypropylcellulose) (HPC)
[14] = dose: 200.0 mg/kg/injection, schedule: Q01DX005 (ip), vehicle: Klucel (hydroxypropylcellulose) (HPC)

Nc1nc(=O)[nH]c([O-])c1N=O.Nc1nc(=O)[nH]c([O-])c1N=O.[Ag+].[Ag+]
T/C (dose: 15.0 mg/kg/injection, schedule: Q01DX005 (ip), vehicle: saline with Tween-80): 104 % of control and 86 % of control | T/C (dose: 30.0 mg/kg/injection, schedule: Q01DX005 (ip), vehicle: saline with Tween-80): 105 % of control and 89 % of control

COc1cccc2c1C(=O)c1c(O)c(C(CC(=O)O)OC3CC(N)C(O)C(C)O3)c(CO)c(O)c1C2=O (stereo unspecified)
T/C (dose: 100.0 mg/kg/injection, schedule: Q04DX003 (ip), vehicle: water): 106 % of control | T/C (dose: 200.0 mg/kg/injection, schedule: Q04DX003 (ip), vehicle: water): 110 % of control

COc1cc2c3c(cccc3c1)C(=O)N(CCN1CCCC1)C2=O
T/C (dose: 17.3 mg/kg/injection, schedule: Q01DX009 (ip), vehicle: saline with Tween-80): 112 % of control | T/C (dose: 34.7 mg/kg/injection, schedule: Q01DX009 (ip), vehicle: saline with Tween-80): 116 % of control | T/C (dose: 50.0 mg/kg/injection, schedule: Q04DX003 (ip), vehicle: Klucel (hydroxypropylcellulose) (HPC)): 100 % of control | T/C (dose: 69.3 mg/kg/injection, schedule: Q01DX009 (ip), vehicle: saline with Tween-80): 116 % of control | T/C [1]: 101 % of control | T/C [2]: 100 % of control

O=C1OCC2CC3c4ccccc4C12c1ccccc13 (stereo unspecified)
T/C (dose: 25.0 mg/kg/injection, schedule: Q01DX001 (ip), vehicle: Klucel (hydroxypropylcellulose) (HPC)): 100 % of control | T/C (dose: 50.0 mg/kg/injection, schedule: Q01DX001 (ip), vehicle: Klucel (hydroxypropylcellulose) (HPC)): 94 % of control | T/C (dose: 100.0 mg/kg/injection, schedule: Q01DX001 (ip), vehicle: Klucel (hydroxypropylcellulose) (HPC)): 100 % of control | T/C (dose: 200.0 mg/kg/injection, schedule: Q01DX001 (ip), vehicle: Klucel (hydroxypropylcellulose) (HPC)): 103 % of control

O=C(O)Cc1c[nH]c2c(Cl)ccc(Cl)c12
T/C [3]: 101 % of control | T/C [4]: 100 % of control

CCOC(=O)CCCCSCCCCC(=O)OCC
T/C [3]: 100 % of control | T/C [4]: 100 % of control | T/C (dose: 400.0 mg/kg/injection, schedule: Q01DX001 (ip), vehicle: saline with Tween-80): 100 % of control

CCCC(=O)c1cc(-c2cc(C(=O)CCC)nc(N)n2)nc(N)n1
T/C [5]: 99 % of control | T/C [6]: 107 % of control

Cc1cc(N(CCCl)CCCl)ccc1C=Nc1ccc(F)cc1
T/C [7]: 104 % of control | T/C (dose: 200.0 mg/kg/injection, schedule: Q01DX009 (ip), vehicle: saline with Tween-80): 155 % of control | T/C (dose: 264.0 mg/kg/injection, schedule: Q04DX003 (ip), vehicle: saline with Tween-80): 109 % of control | T/C (dose: 400.0 mg/kg/injection, schedule: Q01DX009 (ip), vehicle: saline with Tween-80): 165 % of control | T/C [8]: 150 % of control | T/C (dose: 600.0 mg/kg/injection, schedule: Q04DX003 (ip), vehicle: saline with Tween-80): 168 % of control

Cc1cc(=O)oc2c1cc(OCC(=O)OCCN1CCCCC1)c1occ(C)c12
T/C [9]: 99 % of control | T/C [10]: 92 % of control | T/C [11]: 93 % of control

CN(C)/C=C(\C#N)C=O
T/C (dose: 18.75 mg/kg/injection, schedule: Q01DX009 (ip), vehicle: saline sonified): 118 % of control | T/C (dose: 37.5 mg/kg/injection, schedule: Q01DX009 (ip), vehicle: saline sonified): 109 % of control

OCC1OC(O)C2OCCOCCOC3C(O)C(CO)OC(O)C3OCCOCCOC2C1O (stereo unspecified)
T/C (dose: 60.0 mg/kg/injection, schedule: Q01DX005 (ip), vehicle: saline): 101 % of control | T/C (dose: 120.0 mg/kg/injection, schedule: Q01DX005 (ip), vehicle: saline): 95 % of control | T/C (dose: 240.0 mg/kg/injection, schedule: Q01DX005 (ip), vehicle: saline): 97 % of control

O=c1n(-c2ccccc2)c(=O)n2n1C1C3C4C5C3C2C5(F)C41 (stereo unspecified)
T/C [1]: 103 % of control | T/C [2]: 104 % of control

c1csc(SSc2nccs2)n1
T/C (dose: 25.0 mg/kg/injection, schedule: Q04DX002 (ip), vehicle: saline with Tween-80): 104 % of control | T/C (dose: 50.0 mg/kg/injection, schedule: Q04DX002 (ip), vehicle: saline with Tween-80): 103 % of control | T/C (dose: 100.0 mg/kg/injection, schedule: Q04DX002 (ip), vehicle: saline with Tween-80): 103 % of control and 105 % of control

CC(C)(C)OC(=O)NC(Cc1c[nH]c2ccccc12)C(=O)NC(Cc1c[nH]c2ccccc12)C(=O)NN (stereo not drawn) (Boc-Trp-Trp-NHNH2; configuration not given here)
T/C (dose: 12.5 mg/kg/injection, schedule: Q01DX009 (ip), vehicle: other): 94 % of control | T/C (dose: 25.0 mg/kg/injection, schedule: Q01DX009 (ip), vehicle: other): 94 % of control | T/C (dose: 50.0 mg/kg/injection, schedule: Q01DX009 (ip), vehicle: other): 91 % of control | T/C (dose: 100.0 mg/kg/injection, schedule: Q01DX009 (ip), vehicle: other): 91 % of control | T/C (dose: 200.0 mg/kg/injection, schedule: Q01DX009 (ip), vehicle: other): 107 % of control

O=Cc1cccc2[nH]ccc12
T/C [12]: 102 % of control | T/C [13]: 99 % of control | T/C [14]: 96 % of control

Nc1ccccc1-n1nc2ccc3ccccc3c2n1
T/C [7]: 100 % of control | T/C (dose: 200.0 mg/kg/injection, schedule: Q04DX003 (ip), vehicle: saline with Tween-80): 95 % of control | T/C [8]: 95 % of control

CSC(SC)=C1CCCC(=C(SC)SC)C1=O
T/C [9]: 100 % of control | T/C [10]: 104 % of control | T/C [11]: 99 % of control

C=C1C(=O)OC2C1C(OC(=O)/C(C)=C/CO)C/C(C)=C/CCC1(CO)OC21 (stereo unspecified)
T/C (dose: 0.5 mg/kg/injection, schedule: Q01DX009 (ip), vehicle: Klucel (hydroxypropylcellulose) (HPC)): 100 % of control | T/C (dose: 1.0 mg/kg/injection, schedule: Q01DX009 (ip), vehicle: Klucel (hydroxypropylcellulose) (HPC)): 91 % of control | T/C (dose: 2.0 mg/kg/injection, schedule: Q01DX009 (ip), vehicle: Klucel (hydroxypropylcellulose) (HPC)): 100 % of control | T/C (dose: 4.0 mg/kg/injection, schedule: Q01DX009 (ip), vehicle: Klucel (hydroxypropylcellulose) (HPC)): 103 % of control and 113 % of control | T/C (dose: 8.0 mg/kg/injection, schedule: Q01DX009 (ip), vehicle: Klucel (hydroxypropylcellulose) (HPC)): 105 % of control | T/C (dose: 16.0 mg/kg/injection, schedule: Q01DX009 (ip), vehicle: Klucel (hydroxypropylcellulose) (HPC)): 118 % of control

CCCCCCCCCCCCn1cc[n+](CC(=O)N(O)Cc2ccccc2)c1C
T/C (dose: 1.56 mg/kg/injection, schedule: Q01DX005 (ip), vehicle: saline with Tween-80): 93 % of control | T/C (dose: 3.12 mg/kg/injection, schedule: Q01DX005 (ip), vehicle: saline with Tween-80): 90 % of control | T/C (dose: 6.25 mg/kg/injection, schedule: Q01DX005 (ip), vehicle: saline with Tween-80): 86 % of control

CCCSCCCC(=O)O
T/C (dose: 50.0 mg/kg/injection, schedule: Q01DX009 (ip), vehicle: Klucel (hydroxypropylcellulose) (HPC)): 100 % of control | T/C (dose: 100.0 mg/kg/injection, schedule: Q01DX009 (ip), vehicle: Klucel (hydroxypropylcellulose) (HPC)): 100 % of control | T/C (dose: 200.0 mg/kg/injection, schedule: Q01DX009 (ip), vehicle: Klucel (hydroxypropylcellulose) (HPC)): 104 % of control

NC(CSCCCS(=O)(=O)O)C(=O)O (stereo unspecified)
T/C (dose: 50.0 mg/kg/injection, schedule: Q01DX005 (ip), vehicle: saline): 101 % of control | T/C (dose: 100.0 mg/kg/injection, schedule: Q01DX005 (ip), vehicle: saline): 98 % of control | T/C (dose: 200.0 mg/kg/injection, schedule: Q01DX005 (ip), vehicle: saline): 100 % of control

O=c1cc2[nH]c3ccccc3c(=O)n2[nH]1
T/C [12]: 98 % of control | T/C [13]: 97 % of control | T/C [14]: 95 % of control

CCNC(=O)c1c(C)nc(-c2ccccc2)nc1Nc1ccc(OCC)cc1
T/C [5]: 98 % of control | T/C [6]: 98 % of control | T/C (dose: 240.0 mg/kg/injection, schedule: Q01DX005 (ip), vehicle: saline with Tween-80): 103 % of control

CCCOC(=O)C1(N)CCCC1
T/C (dose: 100.0 mg/kg/injection, schedule: Q04DX003 (ip), vehicle: saline): 100 % of control | T/C (dose: 200.0 mg/kg/injection, schedule: Q04DX003 (ip), vehicle: saline): 113 % of control | T/C (dose: 400.0 mg/kg/injection, schedule: Q04DX003 (ip), vehicle: saline): 118 % of control

O=C1CCCC2=C1C1(OC3C=CC=CN23)C(=O)c2ccccc2C1=O (stereo unspecified)
T/C [9]: 103 % of control | T/C [10]: 97 % of control | T/C [11]: 92 % of control
